Results: PubChem BioAssay (NCI)
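Growth conditions: 96-well plates. Treatment: test compound, 48 hours, 5 concentrations. Analysis: linear interpolation between bracketing concentrations; unreached endpoints set to highest concentration. Here, GI50 denotes the concentration required for 50% inhibition of growth. TGI: total growth inhibition.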

Experiments:
Assay in all cases: inhibition of tumour cell growth, NCI panel, 48 h
[1] = tested on: 786-0 renal
[2] = tested on: A498 renal
[3] = tested on: A549 NSCLC
[4] = tested on: ACHN renal
[5] = tested on: BT-549 breast
[6] = tested on: CAKI-1 renal
[7] = tested on: CCRF-CEM leukemia
[8] = tested on: COLO 205 colon
[9] = tested on: DU-145 prostate
[10] = tested on: EKVX NSCLC
[11] = tested on: HCC-2998 colon
[12] = tested on: HCT-116 colon
[13] = tested on: HCT-15 colon
[14] = tested on: HL-60(TB) leukemia
[15] = tested on: HOP-92 NSCLC
[16] = tested on: HS 578T breast
[17] = tested on: HT29 colon
[18] = tested on: IGROV1 ovarian
[19] = tested on: K-562 leukemia
[20] = tested on: KM12 colon
[21] = tested on: LOX IMVI melanoma
[22] = tested on: M14 melanoma
[23] = tested on: MALME-3M melanoma
[24] = tested on: MCF7 breast
[25] = tested on: MDA-MB-231 breast
[26] = tested on: MDA-MB-435
[27] = tested on: MOLT-4 leukemia
[28] = tested on: NCI-H226 lung
[29] = tested on: NCI-H460 lung
[30] = tested on: NCI-H522 lung
[31] = tested on: NCI/ADR-RES ovarian
[32] = tested on: OVCAR-3 ovarian
[33] = tested on: OVCAR-4 ovarian
[34] = tested on: OVCAR-5 ovarian
[35] = tested on: OVCAR-8 ovarian
[36] = tested on: PC-3 prostate
[37] = tested on: RPMI-8226 leukemia
[38] = tested on: SF-268 CNS
[39] = tested on: SF-295 CNS
[40] = tested on: SF-539 CNS
[41] = tested on: SK-MEL-2 melanoma
[42] = tested on: SK-MEL-28 melanoma
[43] = tested on: SK-MEL-5 melanoma
[44] = tested on: SK-OV-3 ovarian
[45] = tested on: SN12C renal
[46] = tested on: SNB-19 CNS
[47] = tested on: SW-620 colon
[48] = tested on: T-47D breast
[49] = tested on: TK-10 renal
[50] = tested on: U251 CNS
[51] = tested on: UACC-257 melanoma
[52] = tested on: UACC-62 melanoma
[53] = tested on: UO-31 renal
[54] = tested on: HOP-62 NSCLC
[55] = tested on: NCI-H23 lung
[56] = tested on: RXF 393 renal
[57] = tested on: SNB-75 CNS
[58] = tested on: SR leukemia

O=C(CN1CCN(Cc2ccccc2Cl)CC1)NC1CC(=O)c2c(Br)sc(Br)c21 (centres undefined)
GI50 [1]: 19.4 µM
TGI [1]: 40.4 µM
GI50 [2]: 20.5 µM
TGI [2]: 35.4 µM
GI50 [3]: 41.9 µM
TGI [3]: > 100 µM
GI50 [4]: 35.1 µM
TGI [4]: > 100 µM
GI50 [5]: 19.4 µM
TGI [5]: 35.7 µM
GI50 [6]: 19.9 µM
TGI [6]: 37.6 µM
GI50 [7]: 20.7 µM
TGI [7]: 54.8 µM
GI50 [8]: 21.2 µM
TGI [8]: 38.4 µM
GI50 [9]: 18.8 µM
TGI [9]: 33.6 µM
GI50 [10]: 21.7 µM
TGI [10]: 42 µM
GI50 [11]: 19.8 µM
TGI [11]: 35.1 µM
GI50 [12]: 17.3 µM
TGI [12]: 32.9 µM
GI50 [13]: 18 µM
TGI [13]: 34.1 µM
GI50 [14]: 23.3 µM
TGI [14]: 57.4 µM
GI50 [15]: 14.1 µM
TGI [15]: 31.6 µM
GI50 [16]: 29.4 µM
TGI [16]: 71.5 µM
GI50 [17]: 18 µM
TGI [17]: 32.2 µM
GI50 [18]: 18.2 µM
TGI [18]: 34.5 µM
GI50 [19]: 29.6 µM
TGI [19]: > 100 µM
GI50 [20]: 20.9 µM
TGI [20]: 40.6 µM
GI50 [21]: 18.6 µM
TGI [21]: 35.8 µM
GI50 [22]: 17.2 µM
TGI [22]: 31.7 µM
GI50 [23]: 21.6 µM
TGI [23]: 43.8 µM
GI50 [24]: 18.1 µM
TGI [24]: 33.8 µM
GI50 [25]: 21.1 µM
TGI [25]: 39.8 µM
GI50 [26]: 21.5 µM
TGI [26]: 52.5 µM
GI50 [27]: 27.1 µM
TGI [27]: 85.3 µM
GI50 [28]: 23.9 µM
TGI [28]: 91.8 µM
GI50 [29]: 18.3 µM
TGI [29]: 35.2 µM
GI50 [30]: 2 µM
TGI [30]: 5.06 µM
GI50 [31]: 19.6 µM
TGI [31]: 41.9 µM
GI50 [32]: 20.8 µM
TGI [32]: 43.4 µM
GI50 [33]: 18.9 µM
TGI [33]: 34.4 µM
GI50 [34]: 51.4 µM
TGI [34]: > 100 µM
GI50 [35]: 24.8 µM
TGI [35]: 54.8 µM
GI50 [36]: 16.1 µM
TGI [36]: 34.6 µM
GI50 [37]: 16.6 µM
TGI [37]: 38.5 µM
GI50 [38]: 19 µM
TGI [38]: 36.7 µM
GI50 [39]: 25.6 µM
TGI [39]: 57.6 µM
GI50 [40]: 20.3 µM
TGI [40]: 36.1 µM
GI50 [41]: 15.7 µM
TGI [41]: 31.4 µM
GI50 [42]: 18.1 µM
TGI [42]: 32.2 µM
GI50 [43]: 20.3 µM
TGI [43]: 38.7 µM
GI50 [44]: 54.1 µM
TGI [44]: > 100 µM
GI50 [45]: 19.1 µM
TGI [45]: 35.9 µM
GI50 [46]: 18.6 µM
TGI [46]: 33.1 µM
GI50 [47]: 19.8 µM
TGI [47]: 36.6 µM
GI50 [48]: 21.6 µM
TGI [48]: 43.9 µM
GI50 [49]: 44.3 µM
TGI [49]: 97.1 µM
GI50 [50]: 19.7 µM
TGI [50]: 35.3 µM
GI50 [51]: 22.3 µM
TGI [51]: 44 µM
GI50 [52]: 16.3 µM
TGI [52]: 31 µM
GI50 [53]: 17.4 µM
TGI [53]: 31.8 µM

O=C(CCCn1c2c(sc3ccccc32)c(=O)n2nnc(-c3ccccc3)c12)NCCc1cnc[nH]1
GI50 [1]: 0.594 µM
TGI [1]: 1.79 µM
GI50 [2]: 1.41 µM
TGI [2]: 2.85 µM
GI50 [4]: 1.37 µM
TGI [4]: 2.94 µM
GI50 [5]: 6.9 µM
TGI [5]: 18.2 µM
GI50 [7]: 0.0368 µM
GI50 [8]: 0.299 µM
TGI [8]: 2.35 µM
GI50 [9]: 0.833 µM
TGI [9]: 2.2 µM
GI50 [10]: 3.52 µM
TGI [10]: 18.6 µM
GI50 [11]: 1.26 µM
TGI [11]: 3.41 µM
GI50 [13]: 0.505 µM
TGI [13]: 2.14 µM
GI50 [14]: 0.0724 µM
TGI [14]: 3.21 µM
GI50 [54]: 1.31 µM
TGI [54]: 2.87 µM
GI50 [15]: 6.16 µM
TGI [15]: 33 µM
GI50 [16]: 0.783 µM
TGI [16]: 2.19 µM
GI50 [17]: 0.719 µM
TGI [17]: 2.36 µM
GI50 [18]: 0.0997 µM
TGI [18]: 2.07 µM
GI50 [19]: 0.0456 µM
GI50 [20]: 0.593 µM
TGI [20]: 3.19 µM
GI50 [21]: 0.28 µM
TGI [21]: 2.49 µM
GI50 [23]: 1.88 µM
TGI [23]: 3.58 µM
GI50 [24]: 1.1 µM
TGI [24]: 2.43 µM
GI50 [25]: 1.91 µM
TGI [25]: 3.5 µM
GI50 [26]: 0.345 µM
TGI [26]: 1.87 µM
GI50 [27]: 0.815 µM
TGI [27]: > 100 µM
GI50 [28]: 4.43 µM
TGI [28]: 14.1 µM
GI50 [55]: 2.71 µM
TGI [55]: 9.6 µM
GI50 [29]: 1.7 µM
TGI [29]: 3.11 µM
GI50 [30]: 0.0346 µM
TGI [30]: 2.79 µM
GI50 [31]: 0.972 µM
TGI [31]: > 24.4 µM
GI50 [32]: 2.01 µM
TGI [32]: 5.41 µM
GI50 [33]: 1.84 µM
TGI [33]: 4.33 µM
GI50 [34]: 0.0751 µM
TGI [34]: 1.51 µM
TGI [35]: 2.99 µM
GI50 [36]: 0.0603 µM
TGI [36]: 2.21 µM
GI50 [56]: 2.56 µM
TGI [56]: 5.25 µM
GI50 [38]: 1.8 µM
TGI [38]: 4.35 µM
GI50 [39]: 0.456 µM
TGI [39]: 2.11 µM
GI50 [40]: < 0.0144 µM
TGI [40]: 0.111 µM
GI50 [41]: 2.37 µM
TGI [41]: 4.98 µM
GI50 [42]: 1.01 µM
TGI [42]: 2.36 µM
GI50 [43]: 1.84 µM
TGI [43]: 11.4 µM
GI50 [44]: 2 µM
TGI [44]: 6.04 µM
GI50 [45]: < 0.0105 µM
TGI [45]: 2.01 µM
GI50 [46]: 2.97 µM
TGI [46]: 14.7 µM
GI50 [57]: 1.95 µM
TGI [57]: 3.51 µM
GI50 [58]: 0.356 µM
TGI [58]: 5.61 µM
GI50 [47]: 0.0245 µM
TGI [47]: 0.362 µM
GI50 [48]: 0.638 µM
TGI [48]: 10.5 µM
GI50 [49]: 2 µM
TGI [49]: 3.75 µM
GI50 [50]: 0.128 µM
TGI [50]: 1.75 µM
GI50 [51]: 2.2 µM
TGI [51]: 4.39 µM
GI50 [52]: 1.81 µM
TGI [52]: 3.39 µM
GI50 [53]: 1.42 µM
TGI [53]: 2.95 µM
